Results as given in patent publication US8637237B2, “Methods, compositions, and systems for the identification of species-specific or developmental stage-specific insecticides” (The University of North Carolina at Greensboro, priority 2003, dated 2014).
pEC50: −log10 of the molar value.

Columns and labels:
GRdEcR/RXR [1] = molecular target: T1, GRdEcR/RXR (Drosophila melanogaster, UniProt P34021, E261P/P331L/Q260P/V259R); assay: GRdEcR (GEcEc) chimera with RXR, (EcRE)5-ΔMTV reporter in CHO cells; assay type: cell-based
T1 construct: ligation of a Not I-Bam HI fragment containing the DBD and LBD of a modified EcR cDNA, EcRnx; expressed in transfected cells; host or cells: CHO
T1 sequence (P34021 259-878 V259R/Q260P/E261P/P331L limits assumed): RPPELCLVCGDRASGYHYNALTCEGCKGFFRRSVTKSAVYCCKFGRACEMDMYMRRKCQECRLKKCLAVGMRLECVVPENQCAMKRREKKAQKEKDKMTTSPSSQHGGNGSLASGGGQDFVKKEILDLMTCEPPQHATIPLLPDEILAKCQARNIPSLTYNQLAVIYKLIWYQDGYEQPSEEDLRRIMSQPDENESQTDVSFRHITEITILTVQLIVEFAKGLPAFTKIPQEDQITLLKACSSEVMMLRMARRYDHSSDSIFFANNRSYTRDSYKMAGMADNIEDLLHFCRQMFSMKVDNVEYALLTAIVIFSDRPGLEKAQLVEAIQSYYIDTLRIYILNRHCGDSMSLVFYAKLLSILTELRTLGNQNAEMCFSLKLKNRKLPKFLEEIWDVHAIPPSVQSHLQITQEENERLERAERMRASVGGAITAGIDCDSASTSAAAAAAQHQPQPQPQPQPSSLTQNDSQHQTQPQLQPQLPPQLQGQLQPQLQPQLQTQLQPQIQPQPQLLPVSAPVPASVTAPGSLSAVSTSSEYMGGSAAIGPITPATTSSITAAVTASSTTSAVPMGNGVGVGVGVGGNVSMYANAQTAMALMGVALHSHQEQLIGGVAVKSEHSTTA
T1 sequence (P28700 1-467 partner): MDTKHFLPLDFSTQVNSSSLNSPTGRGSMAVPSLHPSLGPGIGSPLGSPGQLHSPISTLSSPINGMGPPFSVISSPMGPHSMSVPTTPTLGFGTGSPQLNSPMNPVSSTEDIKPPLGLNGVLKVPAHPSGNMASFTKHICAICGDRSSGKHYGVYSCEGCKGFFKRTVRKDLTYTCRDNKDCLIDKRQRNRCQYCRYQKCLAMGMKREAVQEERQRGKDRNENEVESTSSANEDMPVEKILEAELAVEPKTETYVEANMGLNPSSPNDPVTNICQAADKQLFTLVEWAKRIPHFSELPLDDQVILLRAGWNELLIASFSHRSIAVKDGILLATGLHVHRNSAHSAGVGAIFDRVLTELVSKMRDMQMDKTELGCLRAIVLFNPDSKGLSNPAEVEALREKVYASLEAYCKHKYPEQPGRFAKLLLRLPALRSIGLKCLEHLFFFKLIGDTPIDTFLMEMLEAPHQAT
Experimental: (§1) These experiments employed a mammalian cell culture system using Chinese hamster ovary cells (CHO) to evaluate the transcriptional function of Drosophila melanogaster EcR and USP using methods described previously (U.S. Patent Application Publication No: 2005/0049230; Henrich et al, 2003). Cells were seeded in 6-well polypropylene culture plates (Falcon) with 10^5 cells per well on the day prior to transfection. Transfection was subsequently performed using either calcium phosphate (Kitareewan et al., 1996, Mol. Biol. Cell, 7:1153-1196) or a GenePorter reagent (Gene Therapy Systems, Inc; San Diego, Calif.) following manufacturer's protocols. Each well received 1.25 μg of (EcRE)5-ΔMTV-CAT (five copies of the hsp27 EcRE inserted into an mouse mammary tumor virus (MTV) promoter upstream of the chloramphenicol acetyltransferase (CAT) gene) or (EcRE)5-ΔMTV-LUC (the same promoter attached to firefly luciferase), 1.25 μg of pCH111 (SV40 early promoter linked to the β-galactosidase gene) to normalize CAT activity, and 0.25 μg of each expression plasmid (EcR, FXR, RXR, USP) that was tested. The cells were incubated with plasmid DNA for seven hours and then washed with 1×PBS. Muristerone A (murA; Alexis Biochemicals) or 20-hydroxyecdysone (20E; Sigma) dissolved in ethanol to a concentration of 10 mM was diluted as necessary to the final assay concentration (FAC) in 2 ml of fresh incubation medium that was then applied to the cells. Similarly, JHIII (Sigma) was dissolved in dimethyl sulfoxide (DMSO) to a concentration of […] and diluted into the incubation medium to its final assay concentration (20, 40, 80, 160 μM). […] A corresponding volume of ethanol and DMSO were added to control cells for all experiments. For all experiments, the cells were allowed to incubate with the medium for 24 hours before collection and cell lysates were prepared by described methods (Kitareewan et al., 1996). Both β-galactosidase and CAT reporter activity were measured based on previously used methods (Kitareewan et al, 1996). Luciferase assays using luciferrin followed the specifications of the manufacturer.
(§2) Transcriptional activity, measured as ^14C-chloramphenicol counts (for measuring CAT activity) or relative luciferase activity (RLU) was quantified for each cell lysate. The counts were then normalized by adjusting for differences in β-galactosidase activity, since β-galactosidase expression is controlled by a constitutive promoter and provides an estimate of cell mass. Data were normalized as fold-induction based on differences in reporter gene activity between hormonally treated and control cells.
(§3) In an initial series of studies, a GRdEcR chimera that consists of the rat glucocorticoid receptor (GR) activation domain attached to the EcR DBD and LBD (FIG. 1) was cotransfected along with mRXRα into CHO cells. The response of transfected cells to murA was measured using a (EcRE)5-ΔMTV-CAT reporter plasmid that carries five tandem repeats of the hsp27 EcRE linked to the MTV (mouse mammary tumor virus) promoter and the chloramphenicol acetyltransferase gene (CAT).
(§4) The prominent candidate for this JH-responsive macromolecule in insects is the structurally-related ecdysone receptor (EcR). Like FXR, EcR heterodimerizes with RXR and binds to the hsp27 ecdysone-responsive DNA element (Forman et al., 1995), but distinctively activates transcription in response to muristerone A (MurA or MUR), a synthetic ecdysone (Yao et al., 1992). […] In the experiments shown in FIG. 15A, muristerone A (MUR) was added at the indicated doses in ethanol vehicle, and increasing amounts of JH III (12, 25, or 50 μM) were added (underlying triangles). Numbers over bars indicate the ratio of the GEcEc-dependent activity produced by 50 μM JH III in the presence of the indicated dose of MUR to the activity produced by MUR alone. Relative light units (RLU) from firefly luciferase in cell lysates are expressed relative to renilla luciferase (Promega).

FXR = molecular target: T2, FXR (Rattus norvegicus, UniProt Q62735); assay: cell-based
T2 sequence (Q62735 1-469): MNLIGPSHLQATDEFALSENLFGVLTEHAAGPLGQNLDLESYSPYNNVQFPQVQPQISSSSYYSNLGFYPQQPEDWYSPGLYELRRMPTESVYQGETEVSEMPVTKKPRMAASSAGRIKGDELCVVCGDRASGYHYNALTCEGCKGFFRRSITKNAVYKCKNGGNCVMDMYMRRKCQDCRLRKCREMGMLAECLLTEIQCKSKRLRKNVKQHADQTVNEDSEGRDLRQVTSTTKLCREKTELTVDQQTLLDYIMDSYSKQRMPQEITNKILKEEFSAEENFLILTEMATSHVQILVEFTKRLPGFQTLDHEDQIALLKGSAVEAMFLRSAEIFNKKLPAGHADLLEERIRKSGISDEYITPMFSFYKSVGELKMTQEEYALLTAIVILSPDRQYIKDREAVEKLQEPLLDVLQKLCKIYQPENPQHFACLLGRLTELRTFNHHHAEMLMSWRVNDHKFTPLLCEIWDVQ
T2 sequence (P28700 1-467 partner): T1 sequence (P28700 1-467 partner)
Summary of the method: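 CHO cells co-transfected with FXR, mouse RXRα and a (EcRE)5-ΔMTV-CAT reporter, with β-galactosidase for normalization. An RXR-dependent CRBPII-CAT reporter was run in parallel. Cells were exposed to candidate juvenoids for 24 h; CAT activity normalized to β-gal and expressed as fold induction over vehicle controls.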

GGEc = molecular target: T3, GGEc (Drosophila melanogaster, UniProt P34021); assay: GGEc chimera (GR amino terminus and DBD, EcR LBD) with RXR in CHO cells; assay type: cell-based
T3 construct: were replaced by EcR LBD amino acids (EcR amino acids 329 to 878); expressed in transfected cells; host or cells: CHO
T3 sequence (P34021 329-878): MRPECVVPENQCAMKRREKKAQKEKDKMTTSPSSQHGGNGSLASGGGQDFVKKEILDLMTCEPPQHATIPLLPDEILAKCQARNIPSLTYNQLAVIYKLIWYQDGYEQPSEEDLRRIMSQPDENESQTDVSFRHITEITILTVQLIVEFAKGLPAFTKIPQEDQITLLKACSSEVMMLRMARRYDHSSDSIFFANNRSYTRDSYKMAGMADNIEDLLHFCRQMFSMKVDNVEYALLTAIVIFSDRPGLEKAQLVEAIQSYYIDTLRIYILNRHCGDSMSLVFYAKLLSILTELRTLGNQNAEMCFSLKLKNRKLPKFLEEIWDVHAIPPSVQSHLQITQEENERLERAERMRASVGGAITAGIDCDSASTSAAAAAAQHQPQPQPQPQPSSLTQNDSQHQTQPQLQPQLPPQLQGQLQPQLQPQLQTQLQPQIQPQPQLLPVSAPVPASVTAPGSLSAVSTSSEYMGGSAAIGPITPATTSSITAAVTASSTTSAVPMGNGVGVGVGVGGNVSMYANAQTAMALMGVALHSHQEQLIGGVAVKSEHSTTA
Description: For these experiments, the luciferase reporter construct was used. To obviate influences from other transcription factors, results were normalized using a reporter plasmid from which CAT expression is driven by a minimal promoter consisting of dimerized GREs linked upstream of a 13 base pair TATA box DNA element derived from the adenovirus E1B gene.
In this experiment, GGEc and RXR were transfected into CHO cells with either a CAT or a luciferase reporter plasmid containing 1.5 kilobase pairs of the glucocorticoid-inducible mouse mammary tumor virus (MTV) promoter.
In these experiments, CHO cells were transfected with a GGEc-expressing plasmid, a mouse RXRα expression plasmid, and an adenovirus E1b TATA-(GRE)2-CAT reporter plasmid. The GGEc plasmid was eliminated from DNA mixtures added to cells transfected in parallel. CAT activities were measured from lysates of cells from triplicate wells treated with ethanol vehicle, juvocimene (20 μM), muristerone A (0.2 μM), or both.
In these experiments, CHO cells were transfected with DNAs as described above but ubiquinone-2 (10 μM) was substituted for juvocimene.

GRdEcR/RXR [2] = molecular target: T4, GRdEcR/RXR (Drosophila melanogaster, UniProt P34021); assay: GRdEcR (GEcEc) chimera with RXR, (EcRE)5-ΔMTV reporter in CHO cells; assay type: cell-based; conditions: 25 μM insecticide; 10 nM MUR
T4 construct: ligation of a Not I-Bam HI fragment containing the DBD and LBD of a modified EcR cDNA, EcRnx; expressed in transfected cells; host or cells: CHO
T4 sequence (P34021 259-878 V259R/Q260P/E261P/P331L limits assumed): T1 sequence (P34021 259-878 V259R/Q260P/E261P/P331L limits assumed)
T4 sequence (P28700 1-467 partner): T1 sequence (P28700 1-467 partner)
Experimental: as §1, §2, §3, §4

insect = conditions: from Schneiderman and Gilbert, Science 143; cited from earlier work
tobacco hornworm larvae = conditions: cited from earlier work

C[C@H](CCC(=O)O)[C@H]1CC[C@H]2[C@@H]3[C@H](O)C[C@@H]4C[C@H](O)CC[C@]4(C)[C@H]3CC[C@]12C [CDCA, chenodeoxycholic acid]
induction of GEcEc (GRdEcR/RXR [1]; data not shown): did not induce

COC1=C(OC)C(=O)C(C/C=C(\C)CCC=C(C)C)=C(C)C1=O [U2, ubiquinone-2]
FXR-dependent activity, induction (FXR; dose not stated): 7 fold
GGEc-dependent activity increase over MUR (GGEc; 10 μM ubiquinone-2, muristerone A): 7 times

CCOP(=S)(OCC)Oc1nc(Cl)c(Cl)cc1Cl [chlorpyrifos]
FXR-dependent activity, induction (FXR; 25 μM): potencies and efficacies like farnesol
GEcEc-dependent activity, insecticide plus MUR over MUR alone (GRdEcR/RXR [2]): nine times

CCOP(=S)(OCC)Oc1ccc2c(C)c(Cl)c(=O)oc2c1 [coumaphos]
GEcEc-dependent activity, insecticide plus MUR over MUR alone (GRdEcR/RXR [2]): between two and three times

CCOP(=S)(OCC)Oc1cc(C)nc(C(C)C)n1 [diazinon]
GEcEc-dependent activity, insecticide plus MUR over MUR alone (GRdEcR/RXR [2]): between two and three times

CC(C)=CCC/C(C)=C/CC/C(C)=C/CO [farnesol, all-trans farnesol]
JH ACTIVITY (units/g) (insect): 140 units/g
increase in GEcEc activity over that provided by MUR alone (GRdEcR/RXR [1]; 45 μM farnesol with MUR): 4 fold

C=CC(C)(O)CCC=C(C)CCC=C(C)C (stereo not shown) [nerolidol]
pEC50 (FXR): 4.82
FXR-dependent CAT activity, induction (FXR; 50 μM): 9 fold
FXR ACTIVITY (fold-induction) (FXR; final dose of 50 ∝M, 1 = induction less than 2-fold below cytotoxic doses): 9 fold-induction
GGEc transcription with compound plus MUR relative to MUR alone (GGEc; 50 μM compound, 0.2 μM MUR): between two and four times more
JH ACTIVITY (units/g) (insect): 8.9 units/g

CC1(C)C(C=C(Cl)Cl)C1C(=O)OCc1cccc(Oc2ccccc2)c1 (stereo not shown) [permethrin]
GEcEc-dependent activity, insecticide plus MUR over MUR alone (GRdEcR/RXR [2]): between two and three times

c1cc2c(cc1[C@H]1OC[C@H]3[C@@H]1CO[C@@H]3c1ccc3c(c1)OCO3)OCO2 [sesamin]
FXR-dependent activity, induction (FXR; 100 μM): 12 fold
FXR ACTIVITY (fold-induction) (FXR; dose 100 μM, 1 = no increase over vehicle): 12 fold-induction
potentiation of MUR-inducible GEcEc-dependent activity (GRdEcR/RXR [1]; 25 μM test compound, 0.2 μM muristerone A): between two and four times

Cn1c(=O)c2[nH]cnc2n(C)c1=O [theophylline]
FXR-dependent activity, induction (FXR; 3 mM): 12 fold
FXR ACTIVITY (fold-induction) (FXR; dose 3000 μM): 12 fold-induction
FXR-dependent activity, induction (FXR; theophylline (3 mM) mixed with 8-Br-cAMP (1 mM)): more than 100 fold
concentration in tobacco hornworm larvae (tobacco hornworm larvae; three days after eating tomato leaves sprayed with 1% theophylline): 4000 µM
reduction of leaf consumption (tobacco hornworm larvae; tomato leaves sprayed with 1% theophylline): by half

precocene
inhibition of FXR-dependent activity in the CHO cell-based assay (FXR): did not inhibit
GEcEc-dependent activity, insecticide plus MUR over MUR alone (GRdEcR/RXR [2]): between two and three times
